Measured values published in US8589175B2, “Optimization and individualization of medication selection and dosing” (Children's Hospital Medical Center, priority 2005, dated 2013).
Like-named read-outs stand apart in the source and are kept apart here.

Tests used:
[1] = system: CYP2D6
[2] = system: CYP2C19; experiment: dosing recommendation per CYP2C19 metabolizer subgroup as percentage of usual population dose (Equations 4-6)
Source text: Assuming the goal is to maintain the same AUC for all three subpopulations of patients, the following subpopulation dosing relationships hold: DPM=DEM*(AUCEM/AUCPM) OR DPM=DEM*R if R=(AUCEM/AUCPM) (Equation 2) DIM=DEM*(AUCEM/AUCIM) OR DIM=DEM*S if S=(AUCEM/AUCIM) (Equation 3)
By substituting equations 2 and 3 into equation 1, and then rearranging the equation to solve for the percent dose adjustment needed for each subgroup relative to the population dose: DEM(%)=100/(fEM+fIM*S+fPM*R) (Equation 4) DPM(%)=R*DEM (Equation 5) DIM(%)=S*DEM (Equation 6) Equations 4, 5, and 6 show how the dosing for the more homogeneous subgroups is determined and how the dosing results are expressed as a fraction of the clinician's usual heterogeneous whole group dosages. Determining “Minimal Dose Adjustment Units”
Example: The approach in the previous section leads to individualized initial drug dose recommendations for each of the 3 subgroups (extensive, poor and intermediate metabolizers). Each subgroup represents a specific number of functional alleles for the specific DME (extensive metabolizers have 2 functional, intermediate metabolizers have 1 functional and poor metabolizers have 0 functional). The resultant dosing recommendations are expressed as percentages of the clinician's usual starting dose. It is possible to investigate the effect of increasing numbers of non-functional alleles using these new dosing recommendations. For example, if DRX % is the dosing recommendation for subgroup X expressed as a percentage of the clinician's usual starting dose then the following are true: Effect of […] 1 non-functional allele=(DREM %−DRIM %)/DREM % Effect of 2 non-functional allele=(DREM %−DRPM %)/DREM % Below is a spreadsheet (Table 3) that examines this for CYP2D6, CYP2C19 and CYP2C9. […] 2C9 has 2 MDA units per non-functional allele.

[3] = CYP2D6, ratio of the two effects
[4] = CYP2D6 extensive metabolizers, percent of usual dose
[5] = CYP2D6 intermediate metabolizers, percent of usual dose
[6] = CYP2D6 poor metabolizers, percent of usual dose
[7] = CYP2D6 ultrarapid metabolizers, percent of usual dose

| SMILES | 1 al (effect of 1 non-functional allele) ([1]; human) | 2 al (effect of 2 non-functional alleles) ([1]; human) | 2 al/1 al ([1]; human) | EM (%) dosing recommendation ([1]; human) [%] | IM (%) dosing recommendation ([1]; human) [%] | PM (%) dosing recommendation ([1]; human) [%] | UM (%) dosing recommendation ([1]; human) [%] | other results |
| --- | --- | --- | --- | --- | --- | --- | --- | --- |
| CNCCCN1c2ccccc2CCc2ccccc21 [desipramine] | 0.34 | 0.66 | 1.98 | 125 | 83 | 42 | 167 | – |
| CN(C)CCC=C1c2ccccc2CCc2ccccc21 [amitryptiline] | 0.17 | 0.34 | 2.00 | 111 | 92 | 73 | 130 | 1 al (effect of 1 non-functional allele) ([2]; CYP2C19): 0.26; 2 al (effect of 2 non-functional alleles) ([2]; CYP2C19): 0.51; UM (%) dosing recommendation ([2]; CYP2C19, head prints UM, percent of usual dose): 109%; 2 al/1 al ([2]; CYP2C19, ratio of the two effects): 2.00; IM (%) dosing recommendation ([2]; CYP2C19 intermediate metabolizers, percent of usual dose): 81%; PM (%) dosing recommendation ([2]; CYP2C19 poor metabolizers, percent of usual dose): 53% |
| CN1CCN(C2=Nc3cc(Cl)ccc3Nc3ccccc32)CC1 [clozapine] | −0.11 | −0.20 | – | 94 | 104 | 113 | 84 | 1 al (effect of 1 non-functional allele) ([2]; human): 0.13; 2 al (effect of 2 non-functional alleles) ([2]; human): 0.25; 2 al/1 al ([2]; human): 2.00; IM (%) dosing recommendation ([2]; human): 91%; PM (%) dosing recommendation ([2]; human): 78%; UM (%) dosing recommendation ([2]; human): 104% |
| O=c1[nH]c2ccccc2n1C1CCN(CCCC(c2ccc(F)cc2)c2ccc(F)cc2)CC1 [pimozide] | 0.03 | 0.07 | – | 102 | 99 | 95 | 105 | – |
| CN(C)CCCN1c2ccccc2CCc2ccc(Cl)cc21 [clomipramine] | – | – | – | – | – | – | – | 1 al (effect of 1 non-functional allele) ([2]; human): 0.28; 2 al (effect of 2 non-functional alleles) ([2]; human): 0.44; IM (%) dosing recommendation ([2]; human): 79%; UM (%) dosing recommendation ([2]; human): 110% |
| Fc1ccc([C@@H]2CCNC[C@H]2COc2ccc3c(c2)OCO3)cc1 [paroxetine] | – | – | – | – | – | – | – | 1 al (effect of 1 non-functional allele) ([1]; CYP2D6, (DREM%-DRIM%)/DREM%): 0.21; 2 al (effect of 2 non-functional alleles) ([1]; CYP2D6, (DREM%-DRPM%)/DREM%): 0.42; 2 al/1 al [1, 3]: 2.00; EM (%) dosing recommendation [1, 4]: 114%; IM (%) dosing recommendation [1, 5]: 90%; PM (%) dosing recommendation [1, 6]: 66%; UM (%) dosing recommendation [1, 7]: 138% |
| O=C(NCCN1CCOCC1)c1ccc(Cl)cc1 [moclobemide] | −0.16 | −0.32 | – | 92 | 107 | 121 | 77 | 1 al (effect of 1 non-functional allele) ([2]; human): 0.25; 2 al (effect of 2 non-functional alleles) ([2]; human): 0.51; 2 al/1 al ([2]; human): 2.00; IM (%) dosing recommendation ([2]; human): 82%; PM (%) dosing recommendation ([2]; human): 54%; UM (%) dosing recommendation ([2]; human): 110% |
| Cl.Cl.OCCN1CCN(CCC=C2c3ccccc3Sc3ccc(C(F)(F)F)cc32)CC1 (mixture of isomers) [flupentixol] | – | – | – | – | – | – | – | 1 al (effect of 1 non-functional allele) [1]: 0.26; 2 al (effect of 2 non-functional alleles) [1]: 0.36; 2 al/1 al [1]: 1.40; EM (%) dosing recommendation [1]: 116%; IM (%) dosing recommendation [1]: 86%; PM (%) dosing recommendation [1]: 74%; UM (%) dosing recommendation [1]: 146% |
| COc1ccc2c(c1)N(C[C@H](C)CN(C)C)c1ccccc1S2 [levomepromazine] | 0.00 | 0.00 | – | 100 | 100 | 100 | 100 | – |
| CN1CCN2c3ncccc3Cc3ccccc3C2C1 (stereo not drawn) [mirtazapine] | −0.02 | −0.03 | – | 99 | 101 | 102 | 97 | – |
| OCCN1CCN(CC/C=C2/c3ccccc3Sc3ccc(Cl)cc32)CC1 [zuclopenthixol] | 0.22 | 0.46 | 2.04 | 116 | 90 | 63 | 142 | – |
| CN1CCN(CCCN2c3ccccc3Sc3ccccc32)CC1 [perazine] | 0.17 | 0.22 | 1.26 | 110 | 91 | 86 | 117 | – |
| O=C(CCCN1CCC(O)(c2ccc(Cl)cc2)CC1)c1ccc(F)cc1 [haloperidol] | 0.09 | 0.29 | 3.10 | 107 | 97 | 76 | 126 | – |
| COc1ccc(C(CN(C)C)C2(O)CCCCC2)cc1 (stereo not drawn) [venlafaxine] | – | – | – | – | – | – | – | 1 al (effect of 1 non-functional allele) ([1]; CYP2D6, (DREM%-DRIM%)/DREM%): 0.21; 2 al (effect of 2 non-functional alleles) ([1]; CYP2D6, (DREM%-DRPM%)/DREM%): 0.38; 2 al/1 al [1, 3]: 1.78; EM (%) dosing recommendation [1, 4]: 109%; IM (%) dosing recommendation [1, 5]: 86%; PM (%) dosing recommendation [1, 6]: 68%; UM (%) dosing recommendation [1, 7]: 130% |
| OCCN1CCN(CCCN2c3ccccc3Sc3ccc(Cl)cc32)CC1 [perphenazine] | – | – | – | – | – | – | – | 1 al (effect of 1 non-functional allele) ([1]; CYP2D6, (DREM%-DRIM%)/DREM%): 0.38; 2 al (effect of 2 non-functional alleles) ([1]; CYP2D6, (DREM%-DRPM%)/DREM%): 0.76; 2 al/1 al [1, 3]: 2.00; EM (%) dosing recommendation [1, 4]: 129%; IM (%) dosing recommendation [1, 5]: 80%; PM (%) dosing recommendation [1, 6]: 31%; UM (%) dosing recommendation [1, 7]: 178% |
| CNCCC=C1c2ccccc2CCc2ccccc21 [nortriptyline] | 0.19 | 0.55 | 2.87 | 119 | 96 | 53 | 152 | – |
| CCc1nn(CCCN2CCN(c3cccc(Cl)c3)CC2)c(=O)n1CCOc1ccccc1 [nefazodone] | 0.08 | 0.14 | 1.88 | 105 | 97 | 90 | 113 | – |
| Cc1nc2n(c(=O)c1CCN1CCC(c3noc4cc(F)ccc34)CC1)CCCC2 [risperidone] | 0.09 | – | – | – | – | – | – | – |
| O=C1CCc2ccc(OCCCCN3CCN(c4cccc(Cl)c4Cl)CC3)cc2N1 [aripiprazole] | – | – | – | – | – | – | – | 1 al (effect of 1 non-functional allele) ([1]; CYP2D6, (DREM%-DRIM%)/DREM%): 0.19; 2 al (effect of 2 non-functional alleles) ([1]; CYP2D6, (DREM%-DRPM%)/DREM%): 0.38; 2 al/1 al [1, 3]: 2.05; EM (%) dosing recommendation [1, 4]: 113%; IM (%) dosing recommendation [1, 5]: 92%; PM (%) dosing recommendation [1, 6]: 70%; UM (%) dosing recommendation [1, 7]: 134% |
| O=c1n(CCCN2CCN(c3cccc(Cl)c3)CC2)nc2ccccn12 [trazadone] | 0.15 | 0.31 | 2.00 | 110 | 93 | 76 | 127 | – |
